From patent publication US20250161351A1 (priority 2022, published 2025)

Assays:
Test in all cases: cells
Nomo-1 cells = conditions: Homo sapiens, NOMO-1, 72 h, read-out: Relative cell viability compared to control
[1] = test system: patient-derived primary AML cells HD-23; conditions: 72 h, read-out: Relative cell viability compared to control
HL-60 cells = conditions: Homo sapiens, HL-60, 72 h, read-out: Relative cell viability compared to control

O=C(Cc1cccc(OC(F)(F)F)c1)Nc1ccc(CCCCc2nnc(NC(=O)Cc3ccccn3)s2)nn1 [CB-839]
viability at 0.5 µM (Nomo-1 cells): 96.1%
viability at 1 µM (Nomo-1 cells): 98.1%
viability at 1 µM [1]: 84.6%
viability at 0.5 µM (HL-60 cells): 95.1%
viability at 1 µM (HL-60 cells): 92.1%

C#CCC(N)C(=O)O (stereo not shown) [PPG, 2-aminopent-4-ynoic acid]
viability at 250 µM (Nomo-1 cells): 97.9%
viability at 500 µM (Nomo-1 cells): 96.6%
viability at 1000 µM (Nomo-1 cells): 95.2%
viability at 2000 µM [1]: 92.9%
viability at 250 µM (HL-60 cells): 98.7%
viability at 500 µM (HL-60 cells): 98.9%
viability at 1000 µM (HL-60 cells): 97.9%

CC1(C)CCC(CN2CCN(c3ccc(C(=O)NS(=O)(=O)c4ccc(NCC5CCOCC5)c([N+](=O)[O-])c4)c(Oc4cnc5[nH]ccc5c4)c3)CC2)=C(c2ccc(Cl)cc2)C1 [Venetoclax, 4-[4-[[2-(4-Chlorophenyl)-4,4-dimethyl-1-cyclohexen-1-yl]methyl]-1-piperazinyl]-N-[[3-nitro-4-[[(tetrahydro-2H-pyran-4-yl)methyl]amino]phenyl]sulfonyl]-2-(1H-pyrrolo[2,3-b]pyridin-5-yloxy)benzamide]
viability at 0.015625 µM (Nomo-1 cells): 93.8%
viability at 0.03125 µM (Nomo-1 cells): 90.4%
viability at 0.0625 µM (Nomo-1 cells): 85.4%
viability at 0.125 µM (Nomo-1 cells): 79.8%
viability at 0.5 µM (Nomo-1 cells): 63.6%
viability at 1 µM (Nomo-1 cells): 55.3%

Nc1ncn([C@@H]2O[C@H](CO)[C@@H](O)[C@H]2O)c(=O)n1 [Azacytidine, 4-Amino-1-β-D-ribofuranosyl-1,3,5-(1H)triazin-2-one]
viability at 1.5 µM (Nomo-1 cells): 67.1%
